Read-outs that look alike come from different tables or passages of the source.
Tests used:
hTRPV3 [1] = biological target: T1, hTRPV3 (Homo sapiens, UniProt Q8NET8); experiment: whole-cell patch-clamp of hTRPV3 currents in HEK293T cells activated by 2-APB; format: cell-based; conditions: for inhibition at 50 µM: agonist 2-APB 50 μM
T1 construct: expressed in transfected cells; host or cells: HEK293T
T1 sequence (Q8NET8 1-790): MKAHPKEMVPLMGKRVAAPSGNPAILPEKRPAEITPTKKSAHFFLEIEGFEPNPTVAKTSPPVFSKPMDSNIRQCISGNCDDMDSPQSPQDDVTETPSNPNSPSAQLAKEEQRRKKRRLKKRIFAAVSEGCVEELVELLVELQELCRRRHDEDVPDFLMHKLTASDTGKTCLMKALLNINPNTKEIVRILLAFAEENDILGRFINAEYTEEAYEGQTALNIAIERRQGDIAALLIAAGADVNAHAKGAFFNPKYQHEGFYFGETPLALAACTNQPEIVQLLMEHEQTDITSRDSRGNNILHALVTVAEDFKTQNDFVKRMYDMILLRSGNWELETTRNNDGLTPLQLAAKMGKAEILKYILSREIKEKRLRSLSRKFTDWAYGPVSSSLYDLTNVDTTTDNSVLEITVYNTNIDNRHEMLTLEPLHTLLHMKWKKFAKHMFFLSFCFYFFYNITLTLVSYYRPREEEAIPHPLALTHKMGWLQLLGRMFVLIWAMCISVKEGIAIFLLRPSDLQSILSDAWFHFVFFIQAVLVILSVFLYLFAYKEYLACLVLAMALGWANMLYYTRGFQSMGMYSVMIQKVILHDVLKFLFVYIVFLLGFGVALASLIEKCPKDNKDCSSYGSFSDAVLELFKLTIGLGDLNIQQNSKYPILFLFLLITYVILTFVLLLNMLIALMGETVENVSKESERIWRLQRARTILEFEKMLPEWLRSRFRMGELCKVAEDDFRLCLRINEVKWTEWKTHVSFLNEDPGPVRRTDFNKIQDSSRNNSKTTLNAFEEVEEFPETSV
Protocol: (§1) HEK293T cell line was obtained from the Cell Resource Center, Peking Union Medical College. HEK293T cells were maintained in Dulbecco’s modified Eagle’s medium (DMEM, Gibco) supplemented with 10% fetal bovine serum at 37 °C with 5% CO2. HEK293T cells were seeded onto glass coverslips 1 day in advance and transiently transfected with […] complementary deoxyribonucleic acids of human TRPV3 (hTRPV3, accession number NM_145068.4), hTRPV1 (accession number NM_080704.3), mTRPV2 (accession number NM_011706.2), hTRPV4 (accession number NM_021625.5), hTRPA1 (accession number NM_007332.3), and hTRPM8 (accession number NM_024080.5) through Lipofectamine 2000 (Invitrogen) following the manufacture’s protocol. The next day, determine the plasmid transfection status by observing green fluorescence based on expression of enhanced GFP as an indicator. All WT or mutant hTRPV3 complementary deoxyribonucleic acid plasmids were confirmed by DNA sequencing. When conducting experiments on HEK293T cells transfected with G573S point mutant TRPV3 plasmid, we replaced culture medium with or without compounds after 4 h of transfection and then observed green fluorescence of HEK293T cell after 10 h. As for the relative fluorescence intensity, we convert the image to 8 bit grayscale using ImageJ (Https://imagej.net/software/fiji/downloads) and set an appropriate threshold value to reduce background noise and enhance the image contrast.
(§2) All patch-clamp recordings were conducted 16 to 24 h after transfection using an EPC10 amplifier powered by PatchMaster software (HEKA) (https://www.heka.com/downloads/downloads_main.html#down_patchmaster) at room temperature. The borosilicate glass pipettes were pulled using a DMZ universal electrode puller (Zeitz-Instruments GmbH) to achieve the resistances of three to 5 MΩ (for whole-cell recordings) or five to 9 MΩ (for inside-out patch recordings). Currents were recorded at a potential ramp from −100 mV to +100 mV for 1000 ms with 1000-ms intervals (for whole-cell recordings) or a persistent potential of −60 mV (inside-out patch recordings). Both pipette solution and bath solution contained (in mM): 130 NaCl, 3 Hepes, and 0.2 EDTA (pH = 7.2–7.4). All recording data were analyzed using Igor Pro (Wave-metrics) (https://www.wavemetrics.com/order/order_igordownloads.htm) and Origin 8.6 (Origin Lab) (https://www.originlab.com/doc/zh/Quick-Help/Download-Installer).

hTRPV3 [2] = biological target: T1, hTRPV3; experiment: single-channel inside-out patch recordings of hTRPV3 in HEK293T cells; format: cell-based; conditions: for single-channel open probability: n = 5
Protocol: as §1, with “All WT or mutant hTRPV3 complementary deoxyribonucleic acid plasmids were confirmed by DNA sequencing. When conducting experiments on HEK293T cells transfected with G573S point mutant TRPV3 plasmid, we replaced culture medium with or without compounds after 4 h of transfection and then observed green fluorescence of HEK293T cell after 10 h.” left out
as §2

[3] = system: Car-induced ear swelling and dorsal skin inflammation in mice; experiment: mouse model of ear swelling and dorsal skin inflammation induced by skin sensitizer Car (3%); format: in vivo
From the text: Adult C57BL/6J mice (aged 6–8 weeks, weighing 20 ± 2 g) were purchased from the Beijing Vital River Laboratory Animal Technology Co. Ltd. TRPV3-KO mice were purchased from Cyagen Biosciences Inc. All mice were housed in plastic cages with natural poplar wood bedding materials, accommodating three to five mice per cage. The housing environment was maintained at a controlled room temperature of (23 ± 2) °C and humidity of (50 ± 5) %, with 12-h light/dark cycle (lights on at 7:00 AM and off at 7:00 PM). Mice had free access to food and water. All animal test protocols were approved by the Institutional Animal Care and Use Committee of Qingdao University Health Science Center and were conducted in accordance with institutional and national guidelines for the use and care of animals in experiments. All mice were anesthetized with isoflurane (1%–1.5%) using an isoflurane gas anesthesia device and were euthanized under anesthesia.
Skin sensitizer Car was dissolved in saline solution containing 30% ethanol. The dorsal skin or ear of mice was swabbed with 3% Car for four consecutive days. To investigate the effects of ROSA, it was diluted to concentration of 0.1/1/10 mM with saline and topically applied on the ear and dorsal skin once a day for 4 days. The control group only received swabs with the solvent.

`O=C(/C=C/c1ccc(O)c(O)c1)O[C@H](Cc1ccc(O)c(O)c1)C(=O)O` [ROSA, rosmarinic acid] gave an IC50 (hTRPV3 [1]) of 12.4 ± 4.2 µM, an inhibition at 50 µM (hTRPV3 [1]; HEK-293T, ROSA 50 μM, Fig. 2G, read-out: inhibition of TRPV3 currents) of roughly 74.3% and an inhibition at 100 µM (hTRPV3 [1]; HEK-293T, ROSA 100 μM, 2-APB, WT, read-out: inhibition of macroscopic WT hTRPV3 currents) of 87%. It also gave an inhibition at 50 µM (hTRPV3 [1]; HEK-293T, compound 50 μM, Fig. 3I, n = 4-5, read-out: inhibition of hTRPV3 currents) of roughly 75.3%, a single-channel open probability (hTRPV3 [2]; ROSA 100 μM co-perfused with 2-APB 50 μM) of 0.13 ± 0.05 and a single-channel open probability (hTRPV3 [2]; ROSA 100 μM co-perfused with Car 300 μM) of 0.28 ± 0.06. The “effect on channel unitary conductance” value (hTRPV3 [2]; ROSA 100 μM with 2-APB 50 μM or Car 300 μM) was “without altering the channel unitary conductance”, the “ear thickness in Trpv3 KO mice” value ([3]; topical ROSA 10 mM, Trpv3 KO mice, Car) was “no further reduction of ear thickness” and the “ear and dorsal skin inflammation” value ([3]; topical ROSA 0.1, 1.0 and 10 mM once a day for 4 days, 3% Car, compared to Car alone) was “significantly alleviated the ear and dorsal skin inflammation”. The ear swelling scores ([3]; topical ROSA 0.1, 1.0 and 10 mM, 3% Car, compared to Car alone) was “reduced the ear swelling scores in both dose- and time-dependent manner”, the ear thickness ([3]; topical ROSA, 3% Car, compared to Car alone) was “reduction in ear thickness was also evident, starting on the third day” and the “dermatitis scores, dorsal skin” value ([3]; topical ROSA, 3% Car, fourth day) was “significant difference in dermatitis scores between the ROSA group and the Car group”.
